This is an account of results in US20260201008A1, “SECRETIN-DERIVED GLP1R SELECTIVE AGONISTS” (GUBRA A/S, priority 2023, published 2026).

Data set [1] can be described thus: Fibril formation of crude library peptides (Thioflavin T). The format is physicochemical. Set-up: key: average ThT fluorescence emission at 480 nm (ex 450 nm), raw units. The conditions noted are these: Physical stability of peptides. In a few lines:
(§1)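 Values reflect mean ThT emission (ex 450, em 480 nm) over 72 h at 40° C, read every 10 min after 5 min shaking at 700 rpm, plus a single initial absorbance at 600 nm for turbidity. Peptides were at 267 μM, pH 4.0 acetate or pH 7.0 phosphate (50 mM), with 4 μM ThT.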

The target in another data set is SCTR (Homo sapiens, UniProt P47872). The data set can be described thus: hSCTR potency, cAMP accumulation in CHO-K1 cells stably overexpressing hSCTR. To be noted: cAMP accumulation. Also on record: alternatively Euroscreen ES-712-AF; FAST-0161L; host or cells: CHO-K1. Type of data set: cell-based. The gist of the method:
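Division-arrested CHO-K1 cells stably expressing hSCTR were plated in DPBS with 0.05% casein and 0.5 mM IBMX, then stimulated with test peptide for 30 min at room temperature. cAMP was read by HTRF after one hour. EC50 came from variable-slope sigmoidal nonlinear regression.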
In general terms: Cyclic AMP is a second messenger, typically raised through Gs and lowered through Gi signalling.

The nature of data set [2]: Turbidity of crude library peptides (absorbance at 600 nm). The format is physicochemical. The conditions noted are these: Physical stability of peptides. In a few lines:
as §1

A further data set addresses GLP1R (Homo sapiens, UniProt P43220). Description: hGLP1R potency, cAMP accumulation in CHO-K1 cells stably overexpressing hGLP1R. To be noted: for Selectivity: SCTR EC50/GLP1R EC50 ratio; for EC50: cAMP accumulation; for SCTR EC50/GLP1R EC50 ratio: cAMP accumulation in CHO-K1 cells. Set-up: host or cells: CHO-K1. The format is cell-based. In a few lines: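 Cells were plated in DPBS with 0.05% casein and 0.5 mM IBMX, then stimulated for 30 min at room temperature with test compound. cAMP was read by TR-FRET after one hour. EC50 came from variable-slope sigmoid nonlinear regression; purified peptides ran as 11-point 3-fold series, n=2.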

Setting [3] is: CHO-K1 cells overexpressing hSCTR, read-out: pEC50 hSCTR (converted).
Setting [4] is: CHO-K1 cells overexpressing hGLP1R, read-out: pEC50 hGLPR1 (converted).

Read-outs that look alike come from different tables or passages of the source. Numbered stars: 1 amine (or outer) side, 2 acyl side, 3 side chain; on linkers, the order of the positions; unused ones are H or OH. Square brackets hold non-standard residues; d marks the D form. Side chains are listed from the residue outwards. Peptide text beside a SMILES is read from it. * marks the point of attachment. C20 diacid = O=C(O)CCCCCCCCCCCCCCCCCCC(=O)*; γGlu = O=C(O)[C@H](CCC(=O)[*:2])N[*:1]; AEEA = NCCOCCOCC(=O)O; Aib = CC(C)(N)C(=O)O

Chain of GLP1R (P43220 24-463): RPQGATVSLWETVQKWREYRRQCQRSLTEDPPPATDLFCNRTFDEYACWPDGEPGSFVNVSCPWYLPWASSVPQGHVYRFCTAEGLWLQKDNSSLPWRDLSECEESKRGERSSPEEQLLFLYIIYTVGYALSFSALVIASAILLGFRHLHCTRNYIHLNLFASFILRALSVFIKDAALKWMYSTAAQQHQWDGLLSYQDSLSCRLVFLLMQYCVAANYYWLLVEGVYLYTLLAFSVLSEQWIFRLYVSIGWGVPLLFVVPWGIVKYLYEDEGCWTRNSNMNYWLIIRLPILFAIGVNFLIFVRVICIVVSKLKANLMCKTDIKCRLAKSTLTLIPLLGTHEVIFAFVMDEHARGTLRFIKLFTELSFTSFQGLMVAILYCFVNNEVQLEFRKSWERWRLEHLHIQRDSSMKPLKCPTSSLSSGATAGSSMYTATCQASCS
Chain of SCTR (P47872 23-440): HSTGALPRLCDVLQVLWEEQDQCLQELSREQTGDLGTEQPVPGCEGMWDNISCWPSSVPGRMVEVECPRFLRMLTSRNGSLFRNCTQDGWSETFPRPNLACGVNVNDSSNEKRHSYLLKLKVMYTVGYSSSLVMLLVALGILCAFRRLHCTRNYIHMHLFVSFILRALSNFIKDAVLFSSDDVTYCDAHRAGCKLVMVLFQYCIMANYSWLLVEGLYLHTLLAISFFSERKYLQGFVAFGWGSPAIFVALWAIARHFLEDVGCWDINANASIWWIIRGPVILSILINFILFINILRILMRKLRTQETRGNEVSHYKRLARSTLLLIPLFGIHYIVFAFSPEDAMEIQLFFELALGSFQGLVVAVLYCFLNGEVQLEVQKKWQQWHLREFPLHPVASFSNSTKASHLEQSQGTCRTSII

On to `CC(C)C[C@H](NC(=O)[C@H](CCC(=O)O)NC(=O)[C@H](CCCCNC(=O)COCCOCCNC(=O)COCCOCCNC(=O)CC[C@H](NC(=O)CCCCCCCCCCCCCCCCCCC(=O)O)C(=O)O)NC(=O)[C@H](CC(C)C)NC(=O)[C@H](CCCNC(=N)N)NC(=O)[C@H](CO)NC(=O)[C@@H](NC(=O)[C@H](CC(=O)O)NC(=O)[C@H](CO)NC(=O)[C@@H](NC(=O)[C@H](Cc1ccccc1)NC(=O)[C@@H](NC(=O)CNC(=O)[C@H](CCC(=O)O)NC(=O)C(C)(C)NC(=O)[C@@H](N)Cc1c[nH]cn1)[C@@H](C)O)[C@@H](C)O)C(C)C)C(=O)N[C@@H](C)C(=O)N[C@@H](C)C(=O)N[C@@H](C)C(=O)N[C@@H](CCC(N)=O)C(=O)N[C@@H](CCCNC(=N)N)C(=O)N[C@@H](Cc1ccccc1)C(=O)N[C@@H](CC(C)C)C(=O)N[C@@H](CCC(=O)O)C(=O)N[C@@H](Cc1c[nH]cn1)C(=O)N[C@@H](CC(C)C)C(=O)N[C@H](C(N)=O)C(C)C` [compound 9] (H-H[Aib]EGTFTSDVSRLK([AEEA-AEEA-γGlu-C20 diacid])ELAAAQRFLEHLV-NH2), for which the Fibril formation in data set [1] is 10378. In addition, the figures for the EC50 on SCTR (setting [3]) and on GLP1R (setting [4]) were 1000 nM and 0.0631 nM, respectively. The “Turbidity (pH 7)” value in data set [2] is reported as 0.08. In addition, the Selectivity at GLP1R is on record as 13668.
The like results for `CC(C)C[C@H](NC(=O)[C@H](Cc1ccccc1)NC(=O)[C@H](CCCNC(=N)N)NC(=O)[C@H](CCC(N)=O)NC(=O)C(C)(C)NC(=O)[C@H](C)NC(=O)[C@H](C)NC(=O)[C@H](Cc1ccccc1)NC(=O)[C@H](CCC(=O)O)NC(=O)[C@H](CCCCNC(=O)COCCOCCNC(=O)COCCOCCNC(=O)CC[C@H](NC(=O)CCCCCCCCCCCCCCCCCCC(=O)O)C(=O)O)NC(=O)[C@H](CC(C)C)NC(=O)[C@H](Cc1ccc(O)cc1)NC(=O)[C@H](CO)NC(=O)[C@@H](NC(=O)[C@H](CC(=O)O)NC(=O)[C@H](CO)NC(=O)[C@@H](NC(=O)[C@H](Cc1ccccc1)NC(=O)[C@@H](NC(=O)CNC(=O)[C@H](CCC(=O)O)NC(=O)C(C)(C)NC(=O)[C@@H](N)Cc1c[nH]cn1)[C@@H](C)O)[C@@H](C)O)C(C)C)C(=O)N[C@@H](CCC(=O)O)C(=O)N[C@@H](Cc1c[nH]cn1)C(=O)N[C@@H](CC(C)C)C(=O)N[C@H](C(N)=O)C(C)C` [compound 46] (H-H[Aib]EGTFTSDVSYLK([AEEA-AEEA-γGlu-C20 diacid])EFAA[Aib]QRFLEHLV-NH2) were, in that order, 16732, 3980 nM, 0.0501 nM, 0.08 and 67329.
For `CC(C)C[C@H](NC(=O)[C@H](Cc1ccccc1)NC(=O)[C@H](CCCNC(=N)N)NC(=O)[C@H](CCC(N)=O)NC(=O)[C@@H](NC(=O)[C@H](C)NC(=O)[C@H](C)NC(=O)[C@H](CCC(=O)O)NC(=O)[C@H](CCC(=O)O)NC(=O)[C@H](CCCCNC(=O)COCCOCCNC(=O)COCCOCCNC(=O)CC[C@H](NC(=O)CCCCCCCCCCCCCCCCCCC(=O)O)C(=O)O)NC(=O)[C@H](CC(C)C)NC(=O)[C@@H](NC(=O)[C@H](CO)NC(=O)[C@@H](NC(=O)[C@H](CC(=O)O)NC(=O)[C@H](CO)NC(=O)[C@@H](NC(=O)[C@H](Cc1ccccc1)NC(=O)[C@@H](NC(=O)CNC(=O)[C@H](CCC(=O)O)NC(=O)C(C)(C)NC(=O)[C@@H](N)Cc1c[nH]cn1)[C@@H](C)O)[C@@H](C)O)C(C)C)[C@@H](C)O)[C@@H](C)O)C(=O)N[C@@H](CCC(=O)O)C(=O)N[C@@H](Cc1c[nH]cn1)C(=O)N[C@@H](CC(C)C)C(=O)N[C@H](C(N)=O)C(C)C` [compound 102] (H-H[Aib]EGTFTSDVSTLK([AEEA-AEEA-γGlu-C20 diacid])EEAATQRFLEHLV-NH2), in data set [1], the Fibril formation was determined as 6284. In addition, the EC50 on SCTR (CHO-K1 cells overexpressing hSCTR, read-out: hSCTR pEC50 (converted)) was 79.4 nM; at GLP1R (CHO-K1 cells overexpressing hGLP1R, read-out: hGLP1R pEC50 (converted)), 0.01 nM. Also, the “Turbidity (pH 7)” value in data set [2] is recorded as 0.08. The “SCTR EC50/GLP1R EC50 ratio” value at GLP1R (selectivity for hGLP1R over hSCTR) was found to be 8851.
`CC(C)C[C@H](NC(=O)[C@H](Cc1ccccc1)NC(=O)[C@H](CCCNC(=N)N)NC(=O)[C@H](CCC(N)=O)NC(=O)[C@H](C)NC(=O)[C@H](C)NC(=O)[C@H](C)NC(=O)[C@H](CCC(=O)O)NC(=O)[C@H](CCC(=O)O)NC(=O)[C@H](CCCCNC(=O)COCCOCCNC(=O)COCCOCCNC(=O)CC[C@H](NC(=O)CCCCCCCCCCCCCCCCCCC(=O)O)C(=O)O)NC(=O)[C@H](CC(C)C)NC(=O)[C@H](Cc1ccc(O)cc1)NC(=O)[C@H](CO)NC(=O)[C@@H](NC(=O)[C@H](CC(=O)O)NC(=O)[C@H](CO)NC(=O)[C@@H](NC(=O)[C@H](Cc1ccccc1)NC(=O)[C@@H](NC(=O)CNC(=O)[C@H](CCC(=O)O)NC(=O)C(C)(C)NC(=O)[C@@H](N)Cc1c[nH]cn1)[C@@H](C)O)[C@@H](C)O)C(C)C)C(=O)N[C@@H](CCC(=O)O)C(=O)N[C@@H](Cc1c[nH]cn1)C(=O)N[C@@H](CC(C)C)C(=O)N[C@H](C(N)=O)C(C)C` [compound 61] (H-H[Aib]EGTFTSDVSYLK([AEEA-AEEA-γGlu-C20 diacid])EEAAAQRFLEHLV-NH2) returned a Fibril formation in data set [1] of 9138. The EC50 on SCTR (setting [3]) was 794 nM; at GLP1R (setting [4]) it was 0.0126 nM. The “Turbidity (pH 7)” value in data set [2] is reported as 0.09. Besides, the Selectivity at GLP1R stood at 66252.
In data set [1], `CC[C@H](C)[C@H](NC(=O)[C@H](Cc1ccccc1)NC(=O)[C@H](CCCNC(=N)N)NC(=O)[C@H](CCC(N)=O)NC(=O)[C@H](CC(C)C)NC(=O)[C@H](C)NC(=O)[C@H](C)NC(=O)CNC(=O)[C@H](CCC(=O)O)NC(=O)[C@H](CC(C)C)NC(=O)[C@H](CC(C)C)NC(=O)[C@H](CCCNC(=N)N)NC(=O)[C@H](CO)NC(=O)[C@H](Cc1c[nH]c2ccccc12)NC(=O)[C@H](CC(=O)O)NC(=O)[C@H](CO)NC(=O)[C@@H](NC(=O)[C@H](Cc1ccccc1)NC(=O)[C@@H](NC(=O)CNC(=O)[C@H](CCC(=O)O)NC(=O)C(C)(C)NC(=O)[C@@H](N)Cc1c[nH]cn1)[C@@H](C)O)[C@@H](C)O)C(=O)N[C@@H](CCC(N)=O)C(=O)N[C@@H](Cc1c[nH]c2ccccc12)C(=O)N[C@@H](CC(C)C)C(=O)N[C@H](C(N)=O)C(C)C` [compound 186] (H-H[Aib]EGTFTSDWSRLLEGAALQRFIQWLV-NH2) registered a Fibril formation of 48618. For the same molecule, the EC50 at SCTR (CHO-K1 cells stably overexpressing hSCTR, read-out: hSCTR potency (pEC50) (converted)) is 6.31 nM; on GLP1R (CHO-K1 cells stably overexpressing hGLP1R, read-out: hGLP1R potency (pEC50) (converted)), 0.0126 nM. Also, in data set [2], the “Turbidity (pH 7)” value is recorded as 1.04. For the same molecule, the “SCTR EC50/GLP1R EC50 ratio” value at GLP1R (selectivity ratio, hSCTR vs hGLP1R) turned out to be 478.
`CC(C)C[C@H](NC(=O)[C@H](Cc1ccccc1)NC(=O)[C@H](CCCNC(=N)N)NC(=O)[C@H](CCC(N)=O)NC(=O)C(C)(C)NC(=O)[C@H](C)NC(=O)[C@H](C)NC(=O)[C@@H](NC(=O)[C@H](CCC(=O)O)NC(=O)[C@H](CCCCNC(=O)COCCOCCNC(=O)COCCOCCNC(=O)CC[C@H](NC(=O)CCCCCCCCCCCCCCCCCCC(=O)O)C(=O)O)NC(=O)[C@H](CC(C)C)NC(=O)[C@H](CCC(=O)O)NC(=O)[C@H](CO)NC(=O)[C@@H](NC(=O)[C@H](CC(=O)O)NC(=O)[C@H](CO)NC(=O)[C@@H](NC(=O)[C@H](Cc1ccccc1)NC(=O)[C@@H](NC(=O)CNC(=O)[C@H](CCC(=O)O)NC(=O)C(C)(C)NC(=O)[C@@H](N)Cc1c[nH]cn1)[C@@H](C)O)[C@@H](C)O)C(C)C)[C@@H](C)O)C(=O)N[C@@H](CCC(=O)O)C(=O)N[C@@H](Cc1c[nH]cn1)C(=O)N[C@@H](CC(C)C)C(=O)N[C@H](C(N)=O)C(C)C` [compound 45] (H-H[Aib]EGTFTSDVSELK([AEEA-AEEA-γGlu-C20 diacid])ETAA[Aib]QRFLEHLV-NH2) showed a Fibril formation in data set [1] of 14290. The EC50 on SCTR (setting [3]) is 2000 nM; on GLP1R (setting [4]), 0.02 nM. In addition, the “Turbidity (pH 7)” value in data set [2] was 0.09. Moreover, the Selectivity at GLP1R is reported as 86896.
